Results from PubChem BioAssay AID1918930 (Molecular Pharmacology Branch, DTP, NCI, 2023).
Values joined by “and” are separate entries in the source; they are usually repeats but may differ in a detail not shown here. Identical values can stand only once. Each block holds one compound with its values, some of them ahead of it.

System: 233499-124-R-J3-PDC complex spheroid viability, % test/control
Test: Anticancer human tumor 233499-124-R-J3-PDC patient-derived colon adenocarcinoma cell line growth inhibition
Conditions: for viability, T/C: stronger effect = lower value
Procedure, shortened: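 Multicellular complex spheroids of tumor cells with human endothelial cells (HUVEC) and mesenchymal stem cells; the LSD1 inhibitor iadademstat was combined with standard-of-care or investigational agents. Top concentration at or near clinical Cmax, half-log dilutions; final DMSO ≤0.25%.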
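Note: spheroids exposed to agents for one week before readout.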

Structure (SMILES): COc1cc(Nc2ncc3c(n2)-c2ccc(Cl)cc2C(c2c(F)cccc2OC)=NC3)ccc1C(=O)O + NC1CC1c1ccc(-c2cccc(O)c2)cc1
IC50 (curve of first compound, second compound 0.1 µM): > 1 µM
IC50 (curve of first compound, second compound 0.316 µM): > 1 µM
IC50 (curve of first compound, second compound 1 µM): < 0.00316 µM
IC50 (curve of first compound, second compound 3.16 µM): < 0.00316 µM
IC50 (curve of first compound, second compound 10 µM): < 0.00316 µM
viability, T/C (second compound 0.1 µM, first compound 0.00316 µM): 44.5%
viability, T/C (second compound 0.1 µM, first compound 0.01 µM): 54.3%
viability, T/C (second compound 0.1 µM, first compound 0.0316 µM): 66.4%
viability, T/C (second compound 0.1 µM, first compound 0.1 µM): 72.5%
viability, T/C (second compound 0.1 µM, first compound 0.316 µM): 62%
viability, T/C (second compound 0.1 µM, first compound 1 µM): 102%
viability, T/C (second compound 0.316 µM, first compound 0.00316 µM): 49.5%
viability, T/C (second compound 0.316 µM, first compound 0.01 µM): 59.6%
viability, T/C (second compound 0.316 µM, first compound 0.0316 µM): 64.1%
viability, T/C (second compound 0.316 µM, first compound 0.1 µM): 62.1%
viability, T/C (second compound 0.316 µM, first compound 0.316 µM): 62.8%
viability, T/C (second compound 0.316 µM, first compound 1 µM): 98.4%
viability, T/C (second compound 1 µM, first compound 0.00316 µM): 44.2%
viability, T/C (second compound 1 µM, first compound 0.01 µM): 50.7%
viability, T/C (second compound 1 µM, first compound 0.0316 µM): 53.2%
viability, T/C (second compound 1 µM, first compound 0.1 µM): 54.3%
viability, T/C (second compound 1 µM, first compound 0.316 µM): 60.6%
viability, T/C (second compound 1 µM, first compound 1 µM): 82.9%
viability, T/C (second compound 3.16 µM, first compound 0.00316 µM): 39.8%
viability, T/C (second compound 3.16 µM, first compound 0.01 µM): 52.1%
viability, T/C (second compound 3.16 µM, first compound 0.0316 µM): 70.5%
viability, T/C (second compound 3.16 µM, first compound 0.1 µM): 57.2%
viability, T/C (second compound 3.16 µM, first compound 0.316 µM): 62.5%
viability, T/C (second compound 3.16 µM, first compound 1 µM): 88.9%
viability, T/C (second compound 10 µM, first compound 0.00316 µM): 33%
viability, T/C (second compound 10 µM, first compound 0.01 µM): 48.3%
viability, T/C (second compound 10 µM, first compound 0.0316 µM): 56.2%
viability, T/C (second compound 10 µM, first compound 0.1 µM): 49%
viability, T/C (second compound 10 µM, first compound 0.316 µM): 52.1%
viability, T/C (second compound 10 µM, first compound 1 µM): 86.1%

IC50 (curve of compound): > 1 µM
Structure (SMILES): Nc1ncn(C2CC(O)C(CO)O2)c(=O)n1 (stereo not drawn)
viability, T/C (compound 0.00316 µM): 81% and 90.1%
viability, T/C (compound 0.01 µM): 88.7% and 101%
viability, T/C (compound 0.0316 µM): 83.8% and 87.1%
viability, T/C (compound 0.1 µM): 89.8% and 79.8%
viability, T/C (compound 0.316 µM): 106% and 94.6%
viability, T/C (compound 1 µM): 104% and 77.4%

IC50 (curve of compound): > 10 µM
Structure (SMILES): CC1COCCN1c1cc(C2(S(C)(=N)=O)CC2)nc(-c2ccnc3[nH]ccc23)n1 (stereo not drawn)
viability, T/C (compound 0.0316 µM): 86% and 97.4%
viability, T/C (compound 0.1 µM): 92.5% and 98.9%
viability, T/C (compound 0.316 µM): 75.2% and 90.7%
viability, T/C (compound 1 µM): 65.8% and 86.7%
viability, T/C (compound 3.16 µM): 49.3% and 53.9%
viability, T/C (compound 10 µM): 63.4% and 54.3%

IC50 (curve of compound): > 3 µM
Structure (SMILES): COc1cc(C2c3cc4c(cc3C(OC3OC5COC(C)OC5C(O)C3O)C3COC(=O)C23)OCO4)cc(OC)c1O (stereo not drawn)
viability, T/C (compound 0.00949 µM): 90.2% and 92.1%
viability, T/C (compound 0.03 µM): 91.5% and 80.9%
viability, T/C (compound 0.0949 µM): 97.4% and 88.9%
viability, T/C (compound 0.3 µM): 89% and 59.5%
viability, T/C (compound 0.949 µM): 65.2% and 53.7%
viability, T/C (compound 3 µM): 59% and 47.7%

IC50 (curve of compound): > 10 µM
Structure (SMILES): CC(C)c1c(-c2ccccc2)nc2c(C#N)c[nH]n2c1=O
viability, T/C (compound 0.0316 µM): 90.9% and 92.4%
viability, T/C (compound 0.1 µM): 103% and 96.3%
viability, T/C (compound 0.316 µM): 92.6% and 89.1%
viability, T/C (compound 1 µM): 95% and 106%
viability, T/C (compound 3.16 µM): 105% and 102%
viability, T/C (compound 10 µM): 96.2% and 115%
